Patent US6825185B2, “Substituted aryl compounds as novel cyclooxygenase-2 selective inhibitors, compositions and methods of use” (NitroMed, Inc., priority 2000, dated 2004)

Tests used:
COX-1 = COX-1 (Homo sapiens, UniProt P23219); experiment: COX-1 enzyme activity in human whole blood (A23187 stimulated, thromboxane B2 EIA); assay type: cell-based; parameters: Human blood (≈50 mL) from male or female donors who had not received any aspirin or NSAIDs for 14 days; endogenous in cells; host or cells: human whole blood from donors; conditions: test compound at 100 μM
Description: (§1) The assay for COX-1 and COX-2 enzyme activity, in the human whole blood was performed as described in Brideau et al., Inflamm Res., 45: 68-74 (1996)). Human blood (≈50 mL) from male or female donors who had not received any aspirin or NSAIDs for 14 days was collected at two local area blood donor centers and placed in polypropylene syringes containing sodium heparin (20 units per mL blood, final concentration). The blood was transported to the laboratory on ice packs and used within 1.5 hours of collection. Upon receipt in the laboratory, the blood was allowed to come to room temperature for 15 minutes prior to distribution in 1 mL aliquots per well of 24 well tissue culture plates. The plates were then placed on a gently rotating platform shaker in a 5% CO2 incubator at 37° C. for 15 minutes. Test compounds were dissolved in DMSO, at 1000 fold the final desired concentration, and further diluted, as indicated, in DMSO. One μL of each dilution of the test compound was added per well, in duplicate wells; wells not receiving test compound (e.g., basal, background or control wells) received 1 μL DMSO.
(§2) To induce COX-2, lipopolysaccharide (LPS) from E. coli (LPS, serotype 026:B6 or serotype 0127:B8, Sigma Chemical Co., St. Louis, Mo., Catalogue No. L3755 or L3129, respectively) was added at 10 μg/mL (2 μL of 5 mg/mL LPS in DMSO) to appropriate wells 15 minutes after the addition of the test compound. (Basal or background wells not incubated with LPS received 2 μL of DMSO.) For the stimulation of COX-1, the calcium ionophore, A23187 (free acid from Sigma Chemical Co., St. Louis, Mo., Catalogue No. C7522) was added at 25 μM (1 μL of 25 mM stock in DMSO) to separate wells 4.5 hours after the addition of the test compound. (Again, basal, background or control wells not stimulated with A23187 received 1 μL of DMSO.) At 5 hours after the addition of the test compound, all incubations were terminated by placement on ice and the addition of 2 mM EGTA (100 μL of 20 mM EGTA, tetrasodium, in PBS (phosphate buffered saline) without Ca^++ and Mg^++, pH 7.2)). The resulting solutions, were transferred by polyethylene transfer pipettes to 15 mL polypropylene centrifuge tubes and centrifuged at 1200 g for 10 minutes at 4° C. One hundred μL of plasma was removed from each blood sample and added to 1 mL of methanol in new 15 mL polypropylene centrifuge tubes, vortexed, and stored overnight at −20° C. The next day, the samples were centrifuged at 2000 g for 10 minutes at 4° C. and the supernatants transferred to glass tubes and evaporated to dryness. The samples were assayed for thromboxane B2 using EIA kits supplied by Cayman Chemical Co. (Ann Arbor, Mich., Catalogue No. 519031) in duplicate wells after reconstitution with EIA Buffer and appropriate dilution (2000 fold for COX-1 and 500 fold for Cox-2 samples).

COX-2 = biological target: T1, COX-2 (Homo sapiens, UniProt P35354); experiment: COX-2 enzyme activity in human whole blood (LPS induced, thromboxane B2 EIA); assay type: cell-based; parameters: Human blood (≈50 mL) from male or female donors who had not received any aspirin or NSAIDs for 14 days; endogenous in cells; host or cells: human whole blood from donors, LPS-induced; conditions: test compound at 10 μM
T1 sequence (P35354 18-604): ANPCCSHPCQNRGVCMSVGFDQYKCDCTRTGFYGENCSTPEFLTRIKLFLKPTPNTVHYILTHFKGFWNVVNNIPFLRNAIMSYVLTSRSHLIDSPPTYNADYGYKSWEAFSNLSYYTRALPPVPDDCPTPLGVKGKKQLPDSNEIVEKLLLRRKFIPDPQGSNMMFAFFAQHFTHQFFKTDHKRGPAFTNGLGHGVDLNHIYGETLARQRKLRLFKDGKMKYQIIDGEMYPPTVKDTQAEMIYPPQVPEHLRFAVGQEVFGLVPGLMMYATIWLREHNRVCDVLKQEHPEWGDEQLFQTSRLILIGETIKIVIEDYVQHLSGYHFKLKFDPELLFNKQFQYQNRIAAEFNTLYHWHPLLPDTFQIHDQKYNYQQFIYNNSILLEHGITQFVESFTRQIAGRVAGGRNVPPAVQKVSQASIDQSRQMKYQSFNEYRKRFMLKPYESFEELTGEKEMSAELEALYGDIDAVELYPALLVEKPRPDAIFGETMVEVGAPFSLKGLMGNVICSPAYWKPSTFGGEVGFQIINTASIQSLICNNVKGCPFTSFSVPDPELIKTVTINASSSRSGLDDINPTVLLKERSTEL
Description: as §1, with “Human” for “The assay for COX-1 and COX-2 enzyme activity, in the human whole blood was performed as described in Brideau et al., Inflamm Res., 45: 68-74 (1996)). Human”
as §2, with “(Basal or background wells not incubated with LPS received 2 μL of DMSO.) For the stimulation of COX-1, the calcium ionophore, A23187 (free acid from Sigma Chemical Co., St. Louis, Mo., Catalogue No. C7522) was added at 25 μM (1 μL of 25 mM stock in DMSO) to separate wells 4.5 hours after the addition of the test compound.” left out, “dryness.” for “dryness. The samples were assayed for thromboxane B2 using EIA kits supplied by Cayman Chemical Co. (Ann Arbor, Mich., Catalogue No. 519031) in duplicate wells after reconstitution with EIA Buffer and appropriate dilution (2000 fold for COX-1 and 500 fold for Cox-2 samples).”

Sequence of COX-1 (P23219 24-599): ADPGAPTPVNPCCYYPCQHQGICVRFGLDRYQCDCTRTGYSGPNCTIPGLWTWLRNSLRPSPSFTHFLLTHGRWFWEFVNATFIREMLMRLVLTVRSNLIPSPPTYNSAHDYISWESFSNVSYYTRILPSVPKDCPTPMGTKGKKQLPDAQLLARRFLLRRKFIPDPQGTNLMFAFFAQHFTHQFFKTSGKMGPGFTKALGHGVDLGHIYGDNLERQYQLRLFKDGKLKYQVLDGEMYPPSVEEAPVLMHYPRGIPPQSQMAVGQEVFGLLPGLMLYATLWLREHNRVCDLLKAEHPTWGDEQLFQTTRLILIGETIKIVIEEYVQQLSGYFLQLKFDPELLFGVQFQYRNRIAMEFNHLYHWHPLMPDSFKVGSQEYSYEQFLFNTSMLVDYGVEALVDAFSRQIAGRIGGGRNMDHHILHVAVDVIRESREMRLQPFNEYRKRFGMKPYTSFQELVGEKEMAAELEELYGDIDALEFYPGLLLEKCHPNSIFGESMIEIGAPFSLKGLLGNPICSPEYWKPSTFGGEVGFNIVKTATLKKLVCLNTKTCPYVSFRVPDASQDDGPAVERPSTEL

Compound | COX-1 Inhibition (% at 100 μM) (COX-1) [%] | COX-2 Inhibition (% at 10 μM) (COX-2) [%] | inhibition at 100 µM (COX-1) [%] | inhibition at 10 µM (COX-2) [%]
CS(=O)(=O)c1ccc(-c2cc3c(cc2C(=O)c2cccc(CO[N+](=O)[O-])c2)OCO3)cc1 [Example 12d, 6-(4-(methylsulfonyl)phenyl)(2H-benzo(d)1,3-dioxolan-5-yl)3-((nitrooxy)methyl)phenylketone] | 20 | 20 | – | –
COc1cccc(C(=O)c2cc3c(cc2-c2ccc(S(C)(=O)=O)cc2)OCO3)c1 [Example 13c, 3-Methoxyphenyl-6-(4-(methylsulfonyl)phenyl)(2H-benzo(d)1,3-dioxolan-5-yl) ketone] | 90 | 75 | – | –
Cc1ccc(F)c(C(=O)c2cc3c(cc2-c2ccc(S(C)(=O)=O)cc2)OCO3)c1 [Example 14c, 2-Fluoro-5-methylphenyl6-(4-(methylsulfonyl)phenyl)(2H-benzo(d)1,3-dioxolan-5-yl)ketone] | 90 | 75 | – | –
CS(=O)(=O)c1ccc(-c2cc3c(cc2C(=O)c2cc(F)cc(F)c2)OCO3)cc1 [Example 16, 4-(1-(3′,5′-Difluorophenyl)-1-oxomethyl)-1,2-methylenedioxy-5-(4-methylsulfonylphenyl)benzene] | 50 | 100 | – | –
COc1cc(Cc2cc(F)cc(F)c2)c(-c2ccc(S(C)(=O)=O)cc2)cc1OC [Example 17d, 5-(1-(3′,5′-Difluorophenyl)methyl)-1,2-dimethoxy-4-(4-methylsulfonylphenyl)benzene] | 25 | 20 | – | –
CS(=O)(=O)c1ccc(-c2cc(O)c(O)cc2Cc2cc(F)cc(F)c2)cc1 [Example 17e, 5-(1-(3′,5′-Difluorophenyl)methyl)-1,2-dihydroxy-4-(4-methylsulfonylphenyl)benzene] | 35 | 25 | – | –
CCOC(=O)C1(C(=O)OCC)Oc2cc(Cc3cc(F)cc(F)c3)c(-c3ccc(S(C)(=O)=O)cc3)cc2O1 [Example 17f, 1,2-(Bis(ethoxycarbonyl))methylenedioxy-5-(1-(3′,5′-difluorophenyl)methyl)--4-(4-methylsulfonylphenyl)benzene] | 10 | 25 | – | –
CS(=O)(=O)c1ccc(-c2cc(O)c(O)cc2C(=O)c2cc(F)cc(F)c2)cc1 [Example 17h, 4-(1-(3′,5′-Difluorophenyl)-1-oxomethyl)-1,2-hydroxy-5-(4-methylsulfonylphenyl)benzene] | 65 | 55 | – | –
CS(=O)(=O)c1ccc(-c2cc3c(cc2Cc2cc(F)cc(F)c2)OC(C(=O)NCCO)CO3)cc1 (centres unmarked) [Example 18b, (7-((3,5-Difluorophenyl)methyl)-6-(4-(methylsulfonyl)phenyl)(2H, 3H-benzo(e)1,4-dioxin-2-yl))-N-(2-hydroxyethyl)carboxamido] | 50 | 25 | – | –
CS(=O)(=O)c1ccc(-c2cc3c(cc2Cc2cc(F)cc(F)c2)OCC(C(=O)NCCO)O3)cc1 (centres unmarked) [Example 18c, (6-((3,5-Difluorophenyl)methyl)-7-(4-(methylsulfonyl)phenyl)(2H, 3H-benzo(e)1,4-dioxin-2-yl))-N-(2-hydroxyethyl)carboxamide] | – | – | 90 | 40
CS(=O)(=O)c1ccc(-c2cc3c(cc2Cc2cc(F)cc(F)c2)OC(C(=O)NCCO[N+](=O)[O-])CO3)cc1 (centres unmarked) [Example 18d, (7-((3,5-Difluorophenyl)methyl)-6-(4-(methylsulfonyl)phenyl)(2H, 3H-benzo(e)1,4-dioxin-2-yl))-N-(2-(nitrooxy)ethyl)carboxamido] | 60 | 40 | – | –
O=[N+]([O-])OCc1ccc(-c2cc3c(cc2Cc2cc(F)cc(F)c2)OCO3)cc1 [Example 23d, ((4-(6-((3,5-Difluorophenyl)methyl)(2H-benzo(3,4-d)1,3-dioxolan-5-yl))phenyl)methyl)nitrooxy] | 65 | 30 | – | –
Ethyl 7-((3,5-difluorophenyl)methyl)-6-(4-(methylsulfonyl)phenyl)-2H, 3H-benzo(e)1,4-dioxin-2-carboxylate and ethyl 6-((3, 5-difluorophenyl)methyl)-7-(4-(methylsulfonyl)phenyl)-2H, 3H-benzo(e)1,4-dioxin-2-carboxylate [Example 18a] | 90 | 65 | – | –
